This note sets out measurements from patent US20250353891A1 (MEDIMMUNE LIMITED, priority 2022, published 2025).

A word on the EC50: it is the midpoint of the concentration-response curve.

The target in assay [1] is human GLP-1 receptor (hGLP-1R) (Homo sapiens, UniProt P43220). The assay can be described thus: cAMP production (HTRF) in CHO cells expressing hGLP-1R. The conditions noted are these: for EC50: Table 7, peptides modified at position 20, cAMP in CHO hGLP-1R cells, geometric mean, read-out: hGLP-1R EC50; for % Relative Potency Ratio: Table 7, % GLP-1R activity relative to GLP-1 / % GlucR activity relative to glucagon. More on the design: expressed in transfected cells. In kind it is cell-based. The method in brief: (§1)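 Potency values represent EC50 from 4-parameter logistic curves of HTRF % Delta F signal. Receptor-expressing CHO cells (hGCGR 2×10^5 cells/mL, hGLP-1R 1×10^5 cells/mL) were exposed for 30 min at room temperature before two-step cAMP detection.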
human GLP-1 receptor (hGLP-1R), sequence (P43220 24-463): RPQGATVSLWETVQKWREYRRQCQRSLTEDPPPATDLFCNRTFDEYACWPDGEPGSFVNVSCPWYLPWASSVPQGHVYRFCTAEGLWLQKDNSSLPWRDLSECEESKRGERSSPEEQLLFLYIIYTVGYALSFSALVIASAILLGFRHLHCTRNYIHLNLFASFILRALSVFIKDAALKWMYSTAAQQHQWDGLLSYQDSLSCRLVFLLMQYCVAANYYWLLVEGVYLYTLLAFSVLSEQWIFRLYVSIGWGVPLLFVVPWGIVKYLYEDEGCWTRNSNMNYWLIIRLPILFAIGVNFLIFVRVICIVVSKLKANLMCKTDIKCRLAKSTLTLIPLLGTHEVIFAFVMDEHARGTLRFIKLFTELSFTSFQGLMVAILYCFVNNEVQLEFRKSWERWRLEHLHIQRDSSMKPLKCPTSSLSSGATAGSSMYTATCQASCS
In general terms: Changes in cAMP serve as a functional read-out for many G protein-coupled receptors.

The target of assay [2] is human glucagon receptor (hGCGR) (Homo sapiens, UniProt P47871). Description: cAMP production (HTRF) in CHO cells expressing hGCGR. Type of assay: cell-based. More on the design: expressed in transfected cells. The conditions noted are these: Table 7, peptides modified at position 20; cAMP in CHO hGCGR cells; geometric mean; read-out: hGluc-R EC50. Put shortly: as §1
human glucagon receptor (hGCGR), sequence (P47871 26-477): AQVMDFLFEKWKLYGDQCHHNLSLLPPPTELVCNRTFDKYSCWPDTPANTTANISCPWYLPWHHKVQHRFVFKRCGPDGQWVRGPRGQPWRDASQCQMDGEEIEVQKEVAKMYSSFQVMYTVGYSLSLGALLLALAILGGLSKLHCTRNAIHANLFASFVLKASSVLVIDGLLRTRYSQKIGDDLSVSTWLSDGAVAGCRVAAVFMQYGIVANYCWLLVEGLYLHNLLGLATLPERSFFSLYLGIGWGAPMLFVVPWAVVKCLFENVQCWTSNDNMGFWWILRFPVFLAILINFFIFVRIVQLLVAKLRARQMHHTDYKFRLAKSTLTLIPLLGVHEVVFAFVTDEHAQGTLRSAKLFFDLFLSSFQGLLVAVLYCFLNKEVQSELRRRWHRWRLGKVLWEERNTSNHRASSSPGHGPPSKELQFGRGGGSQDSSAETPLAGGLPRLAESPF

Starred links: 1 amine or outer side, 2 acyl side, 3 side chain; linkers in the order of their positions; H or OH if unused. Non-standard residues stand in square brackets, D forms with d. Residues, ends and D or L forms follow the SMILES beside them. Groups on a side chain read outwards from the residue. *: point of attachment. C20 diacid = O=C(O)CCCCCCCCCCCCCCCCCCC(=O)*; C18 diacid = O=C(O)CCCCCCCCCCCCCCCCC(=O)*; γGlu = O=C(O)[C@H](CCC(=O)[*:2])N[*:1]; X3 = O=C(CN(Cc1c[nH]cn1)[*:1])[*:2]; αMeF = C[C@](N)(Cc1ccccc1)C(=O)O; AEEA = NCCOCCOCC(=O)O; Aib = CC(C)(N)C(=O)O

With `CC[C@H](C)[C@H](NC(=O)[C@H](Cc1c[nH]c2ccccc12)NC(=O)[C@H](CCC(N)=O)NC(=O)[C@@H](NC(=O)[C@](C)(Cc1ccccc1)NC(=O)[C@H](CC(=O)O)NC(=O)[C@H](CCCCNC(=O)COCCOCCNC(=O)COCCOCCNC(=O)CC[C@H](NC(=O)CC[C@H](NC(=O)CCCCCCCCCCCCCCCCCCC(=O)O)C(=O)O)C(=O)O)NC(=O)[C@H](C)NC(=O)[C@H](C)NC(=O)[C@H](CCCNC(=N)N)NC(=O)[C@H](CO)NC(=O)[C@H](CC(=O)O)NC(=O)[C@H](CC(C)C)NC(=O)[C@](C)(Cc1ccccc1)NC(=O)[C@H](CCCCN)NC(=O)[C@H](CO)NC(=O)[C@@H](NC(=O)[C@H](CC(=O)O)NC(=O)[C@H](CO)NC(=O)[C@@H](NC(=O)[C@](C)(Cc1ccccc1)NC(=O)[C@H](CO)NC(=O)CNC(=O)[C@H](Cc1c[nH]cn1)NC(=O)[C@H](CO)NC(=O)CNCc1c[nH]cn1)[C@@H](C)O)C(C)C)C(C)C)C(=O)N[C@@H](C)C(=O)N[C@@H](CC(N)=O)C(=O)N[C@H](C(N)=O)[C@@H](C)O` [Peptide 248] (H-[X3]SHGS[αMeF]TSDVSK[αMeF]LDSRAAK([AEEA-AEEA-γGlu-γGlu-C20 diacid])D[αMeF]VQWIANT-NH2; N-terminus assumed), in assay [1], the concentration for a half-maximal effect (EC50) turned out to be 1.09 nM and the “% Relative Potency Ratio” value stood at 24.6. Further, the EC50 in assay [2] was 13.6 nM.
Taken in the same sequence, the figures for `CC[C@H](C)[C@H](NC(=O)[C@H](CO)NC(=O)[C@H](CCC(=O)O)NC(=O)[C@@H](NC(=O)[C@](C)(Cc1ccccc1)NC(=O)[C@H](CC(=O)O)NC(=O)[C@H](CCCCNC(=O)COCCOCCNC(=O)COCCOCCNC(=O)CC[C@H](NC(=O)CC[C@H](NC(=O)CCCCCCCCCCCCCCCCCCC(=O)O)C(=O)O)C(=O)O)NC(=O)[C@H](C)NC(=O)C(C)(C)NC(=O)[C@H](CCCNC(=N)N)NC(=O)[C@H](CO)NC(=O)[C@H](CC(=O)O)NC(=O)[C@H](CC(C)C)NC(=O)[C@](C)(Cc1ccccc1)NC(=O)[C@H](CCCCN)NC(=O)[C@H](CO)NC(=O)[C@@H](NC(=O)[C@H](CC(=O)O)NC(=O)[C@H](CO)NC(=O)[C@@H](NC(=O)[C@](C)(Cc1ccccc1)NC(=O)[C@H](CO)NC(=O)CNC(=O)[C@H](Cc1c[nH]cn1)NC(=O)C(C)(C)NC(=O)[C@@H](N)Cc1c[nH]cn1)[C@@H](C)O)C(C)C)C(C)C)C(=O)N[C@@H](C)C(=O)N[C@@H](CC(N)=O)C(=O)N[C@H](C(N)=O)[C@@H](C)O` [Peptide 249] (H-H[Aib]HGS[αMeF]TSDVSK[αMeF]LDSR[Aib]AK([AEEA-AEEA-γGlu-γGlu-C20 diacid])D[αMeF]VESIANT-NH2) were 0.558 nM, 1.9 and 0.545 nM.
Take `CC[C@H](C)[C@H](NC(=O)[C@H](CO)NC(=O)[C@H](CCC(=O)O)NC(=O)[C@@H](NC(=O)[C@](C)(Cc1ccccc1)NC(=O)[C@H](CC(=O)O)NC(=O)[C@H](CCCCNC(=O)COCCOCCNC(=O)COCCOCCNC(=O)CC[C@H](NC(=O)CC[C@H](NC(=O)CCCCCCCCCCCCCCCCC(=O)O)C(=O)O)C(=O)O)NC(=O)[C@H](C)NC(=O)C(C)(C)NC(=O)[C@H](CCCNC(=N)N)NC(=O)[C@H](CO)NC(=O)[C@H](CC(=O)O)NC(=O)[C@H](CC(C)C)NC(=O)[C@](C)(Cc1ccccc1)NC(=O)[C@H](CCCCN)NC(=O)[C@H](CO)NC(=O)[C@@H](NC(=O)[C@H](CC(=O)O)NC(=O)[C@H](CO)NC(=O)[C@@H](NC(=O)[C@](C)(Cc1ccccc1)NC(=O)[C@H](CO)NC(=O)CNC(=O)[C@H](Cc1c[nH]cn1)NC(=O)C(C)(C)NC(=O)[C@@H](N)Cc1c[nH]cn1)[C@@H](C)O)C(C)C)C(C)C)C(=O)N[C@@H](C)C(=O)N[C@@H](CC(N)=O)C(=O)N[C@H](C(N)=O)[C@@H](C)O` [Peptide 250] (H-H[Aib]HGS[αMeF]TSDVSK[αMeF]LDSR[Aib]AK([AEEA-AEEA-γGlu-γGlu-C18 diacid])D[αMeF]VESIANT-NH2): in assay [1], the half-maximal effective concentration (EC50) is 0.601 nM and the “% Relative Potency Ratio” value turned out to be 5.2. For the same molecule, the EC50 in assay [2] is 1.57 nM.
